One compound from ChEMBL document CHEMBL5096181, “Isoxazole derivatives as anticancer agent: A review on synthetic strategies, mechanism of action and SAR studies” (Eur J Med Chem, 2021) can be followed below.

The target of the assay is T1, Estrogen receptor (Homo sapiens, UniProt P03372).
T1 sequence (P03372 whole entry): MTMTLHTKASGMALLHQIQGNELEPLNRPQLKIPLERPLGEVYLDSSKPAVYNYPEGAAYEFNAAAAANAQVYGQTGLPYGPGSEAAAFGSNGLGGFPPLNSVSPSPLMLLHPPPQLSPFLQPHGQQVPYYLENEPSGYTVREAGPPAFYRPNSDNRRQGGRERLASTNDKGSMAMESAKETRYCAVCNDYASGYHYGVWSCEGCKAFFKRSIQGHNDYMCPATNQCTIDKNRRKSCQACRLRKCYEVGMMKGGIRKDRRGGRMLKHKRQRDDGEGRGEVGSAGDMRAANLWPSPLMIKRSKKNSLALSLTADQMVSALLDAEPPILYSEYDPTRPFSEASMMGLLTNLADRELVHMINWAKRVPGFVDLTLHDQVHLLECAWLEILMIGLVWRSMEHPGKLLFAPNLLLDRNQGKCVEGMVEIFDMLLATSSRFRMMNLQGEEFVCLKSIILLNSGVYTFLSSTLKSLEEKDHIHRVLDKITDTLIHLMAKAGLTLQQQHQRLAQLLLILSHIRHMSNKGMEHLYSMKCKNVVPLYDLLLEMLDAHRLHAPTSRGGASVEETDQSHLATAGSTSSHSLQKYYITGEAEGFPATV
As to the kind of experiment: Inhibition of ERalpha (unknown origin) in MCF7 cells measured after 24 to 48 hrs by FRET assay. Type of assay: cell-based.

`COc1onc(-c2ccc(O)cc2)c1-c1oc2ccccc2c(=O)c1O` had an IC50 of 91.1 µM.
